From ChEMBL document CHEMBL3046265, “Synthesis, evaluation of antimicrobial activity, and molecular modeling of novel 2-((4-(2H-benzo[d] [1,2,3] triazol-2-yl)piperidin-1-yl)methyl)-5-substituted phenyl-1,3,4-oxadiazoles” (2013)
Activity calls are given as the source filed them. No cut-off for these calls is given here.

Assays:
Assay type in all cases: functional
[1] = tested on: Fusarium oxysporum; experiment: Antifungal activity against Fusarium oxysporum at 300 ug/ml after 48 hr; settings: read-out: IZ
[2] = tested on: Candida albicans; experiment: Antifungal activity against Candida albicans at 1200 ug/ml after 48 hr; settings: read-out: IZ
[3] = tested on: Staphylococcus aureus; experiment: Antibacterial activity against Staphylococcus aureus at 600 ug/ml after overnight incubation
[4] = tested on: Staphylococcus aureus; experiment: Antibacterial activity against Staphylococcus aureus at 900 ug/ml after overnight incubation
[5] = tested on: Bacillus pumilus; experiment: Antibacterial activity against Bacillus pumilus at 600 ug/ml after overnight incubation; settings: read-out: IZ
[6] = tested on: Klebsiella pneumoniae; experiment: Antibacterial activity against Klebsiella pneumoniae at 600 ug/ml after overnight incubation; settings: read-out: IZ
[7] = tested on: Bacillus subtilis; experiment: Antibacterial activity against Bacillus subtilis at 900 ug/ml after overnight incubation; settings: read-out: IZ
[8] = tested on: Colletotrichum falcatum; experiment: Antifungal activity against Glomerella tucumanensis at 1200 ug/ml after 48 hr; settings: read-out: IZ
[9] = tested on: Streptococcus pyogenes; experiment: Antibacterial activity against Streptococcus pyogenes at 600 ug/ml after overnight incubation; settings: read-out: IZ
[10] = tested on: Exserohilum rostratum; experiment: Antifungal activity against Setosphaeria rostrata at 600 ug/ml after 48 hr; settings: read-out: IZ
[11] = tested on: Enterococcus faecalis; experiment: Antibacterial activity against Enterococcus faecalis at 900 ug/ml after overnight incubation; settings: read-out: IZ
[12] = tested on: Fusarium oxysporum; experiment: Antifungal activity against Fusarium oxysporum at 900 ug/ml after 48 hr; settings: read-out: IZ
[13] = tested on: Colletotrichum falcatum; experiment: Antifungal activity against Glomerella tucumanensis at 900 ug/ml after 48 hr; settings: read-out: IZ
[14] = tested on: Bacillus pumilus; experiment: Antibacterial activity against Bacillus pumilus at 900 ug/ml after overnight incubation; settings: read-out: IZ
[15] = tested on: Candida albicans; experiment: Antifungal activity against Candida albicans at 300 ug/ml after 48 hr; settings: read-out: IZ
[16] = tested on: Escherichia coli; experiment: Antibacterial activity against Escherichia coli at 900 ug/ml after overnight incubation; settings: read-out: IZ
[17] = tested on: Klebsiella pneumoniae; experiment: Antibacterial activity against Klebsiella pneumoniae at 900 ug/ml after overnight incubation; settings: read-out: IZ
[18] = tested on: Klebsiella aerogenes; experiment: Antibacterial activity against Enterobacter aerogenes at 600 ug/ml after overnight incubation; settings: read-out: IZ
[19] = tested on: Exserohilum rostratum; experiment: Antifungal activity against Setosphaeria rostrata at 1200 ug/ml after 48 hr; settings: read-out: IZ
[20] = tested on: Exserohilum rostratum; experiment: Antifungal activity against Setosphaeria rostrata at 900 ug/ml after 48 hr; settings: read-out: IZ
[21] = tested on: Colletotrichum falcatum; experiment: Antifungal activity against Glomerella tucumanensis at 600 ug/ml after 48 hr; settings: read-out: IZ
[22] = tested on: Priestia megaterium; experiment: Antibacterial activity against Bacillus megaterium at 900 ug/ml after overnight incubation
[23] = tested on: Fusarium oxysporum; experiment: Antifungal activity against Fusarium oxysporum at 600 ug/ml after 48 hr; settings: read-out: IZ
[24] = tested on: Priestia megaterium; experiment: Antibacterial activity against Bacillus megaterium at 600 ug/ml after overnight incubation
[25] = tested on: Colletotrichum falcatum; experiment: Antifungal activity against Glomerella tucumanensis at 300 ug/ml after 48 hr; settings: read-out: IZ
[26] = tested on: Proteus vulgaris; experiment: Antibacterial activity against Proteus vulgaris at 900 ug/ml after overnight incubation; settings: read-out: IZ
[27] = tested on: Exserohilum rostratum; experiment: Antifungal activity against Setosphaeria rostrata at 300 ug/ml after 48 hr; settings: read-out: IZ
[28] = tested on: Klebsiella aerogenes; experiment: Antibacterial activity against Enterobacter aerogenes at 900 ug/ml after overnight incubation; settings: read-out: IZ
[29] = tested on: Candida albicans; experiment: Antifungal activity against Candida albicans at 900 ug/ml after 48 hr; settings: read-out: IZ
[30] = tested on: Enterococcus faecalis; experiment: Antibacterial activity against Enterococcus faecalis at 600 ug/ml after overnight incubation; settings: read-out: IZ
[31] = tested on: Escherichia coli; experiment: Antibacterial activity against Escherichia coli at 600 ug/ml after overnight incubation; settings: read-out: IZ
[32] = tested on: Proteus vulgaris; experiment: Antibacterial activity against Proteus vulgaris at 600 ug/ml after overnight incubation; settings: read-out: IZ
[33] = tested on: Fusarium oxysporum; experiment: Antifungal activity against Fusarium oxysporum at 1200 ug/ml after 48 hr; settings: read-out: IZ
[34] = tested on: Streptococcus pyogenes; experiment: Antibacterial activity against Streptococcus pyogenes at 900 ug/ml after overnight incubation; settings: read-out: IZ
[35] = tested on: Bacillus subtilis; experiment: Antibacterial activity against Bacillus subtilis at 600 ug/ml after overnight incubation; settings: read-out: IZ
[36] = tested on: Candida albicans; experiment: Antifungal activity against Candida albicans at 600 ug/ml after 48 hr; settings: read-out: IZ

| Compound | zone of inhibition at 300 µg/mL [1] [mm] | zone of inhibition at 1200 µg/mL [2] [mm] | zone of inhibition at 600 µg/mL [5] [mm] | zone of inhibition at 600 µg/mL [6] [mm] | zone of inhibition at 900 µg/mL [7] [mm] | zone of inhibition at 1200 µg/mL [8] [mm] | zone of inhibition at 600 µg/mL [9] [mm] | zone of inhibition at 600 µg/mL [10] [mm] | zone of inhibition at 900 µg/mL [11] [mm] | zone of inhibition at 900 µg/mL [12] [mm] | zone of inhibition at 900 µg/mL [13] [mm] | zone of inhibition at 900 µg/mL [14] [mm] | zone of inhibition at 300 µg/mL [15] [mm] | zone of inhibition at 900 µg/mL [16] [mm] | zone of inhibition at 900 µg/mL [17] [mm] | zone of inhibition at 600 µg/mL [18] [mm] | zone of inhibition at 1200 µg/mL [19] [mm] | zone of inhibition at 900 µg/mL [20] [mm] | zone of inhibition at 600 µg/mL [21] [mm] | zone of inhibition at 600 µg/mL [23] [mm] | also measured |
| --- | --- | --- | --- | --- | --- | --- | --- | --- | --- | --- | --- | --- | --- | --- | --- | --- | --- | --- | --- | --- | --- |
| COc1cccc(-c2nnc(CN3CCC(n4nc5ccccc5n4)CC3)o2)c1 | 3.35 | 17.2 | 5.56 | 3.25 | 9.56 | 25.9 | 4.47 | 5.85 | 9.26 | 10.1 | 13.9 | 11.2 | 2.52 | 6.26 | 7.25 | 3.65 | 19.2 | 10.2 | 7.76 | 5.86 | inhibition zone (IZ) [3]: inactive; inhibition zone (IZ) [4]: inactive; inhibition zone (IZ) [22]: inactive; inhibition zone (IZ) [24]: inactive; zone of inhibition at 300 µg/mL [25]: 4.56 mm; zone of inhibition at 900 µg/mL [26]: 8.45 mm; zone of inhibition at 300 µg/mL [27]: 3.32 mm; zone of inhibition at 900 µg/mL [28]: 7.56 mm; zone of inhibition at 900 µg/mL [29]: 9.86 mm; zone of inhibition at 600 µg/mL [30]: 4.25 mm; zone of inhibition at 600 µg/mL [31]: 3.35 mm; zone of inhibition at 600 µg/mL [32]: 4.36 mm; zone of inhibition at 1200 µg/mL [33]: 21.3 mm; zone of inhibition at 900 µg/mL [34]: 11.3 mm; zone of inhibition at 600 µg/mL [35]: 4.25 mm; zone of inhibition at 600 µg/mL [36]: 5.01 mm |
| CCC(C)n1ncn(-c2ccc(N3CCN(c4ccc(OCC5COC(Cn6cncn6)(c6ccc(Cl)cc6Cl)O5)cc4)CC3)cc2)c1=O (configuration not stated) [ITRACONAZOLE] | 4.82 | 25.1 | – | – | – | 33.4 | – | 7.56 | – | 20 | 18.3 | – | 2.62 | – | – | – | 29.6 | 14.8 | 9.34 | 10.8 | zone of inhibition at 300 µg/mL [25]: 4.67 mm; zone of inhibition at 300 µg/mL [27]: 3.58 mm; zone of inhibition at 900 µg/mL [29]: 12 mm; zone of inhibition at 1200 µg/mL [33]: 39.6 mm; zone of inhibition at 600 µg/mL [36]: 5.35 mm |
| CN[C@@H]1[C@H](O[C@H]2[C@H](O[C@H]3[C@H](O)[C@@H](O)[C@H](N=C(N)N)[C@@H](O)[C@@H]3N=C(N)N)O[C@@H](C)[C@]2(O)C=O)O[C@@H](CO)[C@H](O)[C@H]1O [STREPTOMYCIN] | – | – | 7.25 | 3.24 | 16.2 | – | 8.91 | – | 20.3 | – | – | 14.5 | – | 6.14 | 6.54 | 4.47 | – | – | – | – | zone of inhibition at 600 µg/mL ([3]; read-out: IZ): 10.3 mm; zone of inhibition at 900 µg/mL ([4]; read-out: IZ): 20 mm; zone of inhibition at 900 µg/mL ([22]; read-out: IZ): 12.8 mm; zone of inhibition at 600 µg/mL ([24]; read-out: IZ): 6.23 mm; zone of inhibition at 900 µg/mL [26]: 16.1 mm; zone of inhibition at 900 µg/mL [28]: 8.76 mm; zone of inhibition at 600 µg/mL [30]: 12.8 mm; zone of inhibition at 600 µg/mL [31]: 3.06 mm; zone of inhibition at 600 µg/mL [32]: 8.9 mm; zone of inhibition at 900 µg/mL [34]: 16.5 mm; zone of inhibition at 600 µg/mL [35]: 8.44 mm |
